Series [1] in a line: In vivo pharmacokinetics in SD rats. Particulars: male, rat, plasma. The method, then: Using SD rats as test animals, drug concentrations in plasma of the rats at different times after intravenous injection and intragastric administration of the compounds provided in the present application were determined by LC/MS/MS. In vivo pharmacokinetic behaviors of the compounds provided in the present application in rats were investigated to evaluate pharmacokinetic characteristics of the compounds.
There were three healthy 6-8-week-old male SD rats in each group.
Intravenous administration: A certain amount of drug was weighed, and then 10 vol % N,N-dimethylacetamide, 33 vol % triethylene glycol, and 57 vol % physiological saline were added to prepare 1 mg/mL colorless clear and transparent liquid;
Intragastric administration: A certain amount of drug was weighed, and then 0.5 wt % hydroxypropyl methylcellulose, 0.1 vol % tween 80, and 99.6 vol % physiological saline were added to prepare 1 mg/mL white suspension.
After fasting overnight, the SD rats were dosed intravenously or intragastrically.
The compounds provided in the present application were administered intravenously to the rats, then 0.2 mL of blood was collected from jugular veins respectively at 0.083, 0.25, 0.5, 1, 2, 4, 8, and 24 h after the administration, and placed in a test tube containing EDTA-K2. The test tube was then centrifuged at 4000 rpm at 4° C. for 5 min to separate plasma, and the plasma was stored at −75° C. Alternatively, the compounds provided in the present application were administered intragastrically to the rats, then 0.2 mL of blood was collected from jugular veins respectively at 0.25, 0.5, 1, 2, 4, 8, and 24 h after the administration, and placed in a test tube containing EDTA-K2. The test tube was then centrifuged at 3500 rpm at 4° C. for 10 min to separate plasma, and the plasma was stored at −75° C.
The content of the compounds to be tested in rat plasma after intravenous administration or intragastric administration at different concentrations was determined: 30 μL of rat plasma at each time after administration was taken, 200 μL (50 ng/mL) of solution of internal standard dexamethasone in acetonitrile was added, then the resulting mixture was vortex-mixed for 30 s, and centrifuged at 4700 rpm at 4° C. for 15 min, the supernatant of plasma samples was diluted three times with water, and 2.0 μL of diluted solution was taken for LC-MS/MS.

The target in series [2] is USP1 (Recombinant Human His6-USP1/His6-UAF1 Complex Protein) (Homo sapiens (Human), UniProt O94782). Briefly: In vitro activity assay for USP1 (Ub-CHOP2-Reporter deubiquitination assay). It is filed as biochemical. Particulars: 0.5 h incubation at room temperature, read-out: In vitro inhibitory activity of USP1 IC50. The procedure, abridged:
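His6-USP1/His6-UAF1 complex was mixed with compound in 20 mM Tris-HCl pH 8.0, 2 mM CaCl2, 2 mM β-mercaptoethanol and 0.05% CHAPS. Ub-CHOP2 reporter system plus substrate was added, then incubated 0.5 h at room temperature. IC50 came from a four-parameter logistic fit.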

For the next series, the target named is CYP2C9 (Homo sapiens (Human), UniProt P11712). As to the kind of experiment: CYP enzyme inhibition in pooled human liver microsomes (diclofenac sodium). Type of series: in vitro ADME. The procedure:
Typical substrate metabolic responses of five major human CYP subtypes (CYP1A2, CYP2C9, CYP2C19, CYP2D6, CYP3A4) were evaluated using 150-donor pooled human liver microsomes (purchased from Corning, Cat. No.: 452117). The influence of different concentrations of each compound to be tested on metabolic responses of phenacetin (CYP1A2), diclofenac sodium (CYP2C9), S-mephenytoin (CYP2C19), bufuralol hydrochloride (CYP2D6), and midazolam (CYP3A4) was determined by liquid chromatography-mass spectrometry (LC/MS/MS). […] Then 200 μL of acetonitrile solution containing 3% formic acid and 40 nM internal standard verapamil was added and centrifuged at 4000 rpm for 50 min. The mixture was cooled on ice for 20 min and centrifuged at 4000 rpm for 20 min to precipitate the protein. Then 200 μL of supernatant was analyzed by LC-MS/MS. The peak area was calculated from the chromatogram. The residual activity ratio (%) was calculated according to the following equation: Peak area ratio=metabolite peak area/internal standard peak area Residual activity ratio (%)=peak area ratio of compounds-to-be-tested group/peak area ratio of blank group The half inhibitory concentration (IC50) for CYP was calculated by Excel XLfit 5.3.1.3.

Series [3] can be described thus: Metabolic stability in vitro in human hepatocytes. Type of series: in vitro ADME. Particulars: read-out: Intrinsic clearance. The procedure: The concentration of each compound in the reaction system was measured by LC/MS/MS to calculate the intrinsic clearance of the compounds to be tested, and evaluate the metabolic stability in vitro in human hepatocytes.
To the incubation plate, 198 μL of 0.5×10^6 cells/mL human hepatocyte mixture and 2.0 μL of 100 μM compound to be tested or positive control were added to initiate reaction. Incubation was performed at 900 rpm at 37° C. […] Then the mixture was vortex-mixed for 5 min. […] Then 100 μL of supernatant of each compound was transferred to a 96-well sample plate, and 100 μL of purified water was added to dilute the sample.
The resulting samples were quantified by ion chromatograms. The residual rate was calculated from peak areas of the compounds to be tested or the positive control. The slope k was determined using Microsoft Excel by linear regression of natural logarithm of the residual rate to the incubation time. The intrinsic clearance (in vitro CLint, μL/min/10^6 cells) was calculated from the slope value according to the following equation: […]

Series [4] can be described thus: Caco-2 permeability assay. Type of series: in vitro ADME. As to conditions: human, pH 7.4. On the technique in general: Passage across Caco-2 layers is used to estimate intestinal permeability.
Method: The apparent permeability coefficient (Papp) of the analytical drug was determined by liquid chromatography-mass spectrometry (LC-MS/MS) through a Caco-2 cell model.
In this test example, Caco-2 cells were purchased from American Type Culture Collection (ATCC); 4-hydroxyethyl piperazine ethane sulfonic acid (HEPES) was purchased from Beijing Solarbio Science & Technology Co., Ltd.; Hanks' balanced salt solution (HBSS) and non-essential amino acids (NEAA) were purchased from ThermoFisher Scientific; penicillin, streptomycin, and trypsin/EDTA were purchased from Solarbio; fetal bovine serum (FBS) and DMEM medium were purchased from Corning; HTS-96-well Transwell plates and other sterile consumables were purchased from Corning; Millicell resistance measuring system was purchased from Millipore; Cellometer®K2 was purchased from Nexcelom Bioscience; Infinite 200 PRO microplate reader was purchased from Tecan; and MTS2/4 orbital shaker was purchased from IKA Labortechnik.
Caco-2 cells were cultured in a culture flask. […] Cells at a confluency of 70-90% can be used to inoculate the Transwell. Prior to cell inoculation, 50 μL of cell culture medium was added to each well of the upper Transwell chamber and 25 mL of cell culture medium was added to the lower plate. The plate was incubated in an incubator (37° C., 5% CO2) for 1 h, and then inoculated with cells. After cell digestion, the cell suspension was pipetted and transferred to a round bottom centrifuge tube for centrifugation at 120 g for 5 min. […] The medium was changed as follows: transwell chambers were separated from the receiver plate, medium in the receiver plate was discarded, then medium in the Transwell chambers was discarded, and finally, 75 μL of fresh medium was added to each chamber, and 25 mL of fresh medium was added to the receiver plate.
After approximately 14 days of culture, the Caco-2 cells reached the confluency and completed differentiation. In this case, the cells can be applied to permeability assay. The monolayer resistance was measured with a resistance meter (Millipore, USA) and the resistance per well was recorded. After the measurement, the Transwell plate was put back to the incubator. Calculation of resistance: measured resistance value (ohms)×membrane area (cm^2)=TEER value (ohm·cm^2); if TEER value <230 ohms·cm^2, the well can not be used for permeability assay.
In 900 mL of purified water, 2.38 g HEPES and 0.35 g sodium bicarbonate were dissolved, then 100 mL of 10×HBSS was added and stirred well, pH was adjusted to 7.4, and finally, the resulting solution was filtered to obtain 1 L of transport buffer (HBSS, 10 mM HEPES, pH 7.4).
A DMSO stock solution of 1 mM of compound to be tested was diluted with the transport buffer to obtain 5 μM test solution. The control compound digoxin or minoxidil was diluted with DMSO to 2 mM, and diluted with the transport buffer described above to 10 μM to obtain a control compound test solution. In addition, DMSO was also diluted with the transport buffer described above to a receiving end solution containing 0.5% DMSO.
The Transwell plate was removed from the incubator. Monolayer cell membranes were rinsed twice with the transport buffer (10 mM HEPES, pH 7.4) and incubated at 37° C. for 30 min.
The transport rate of the compound from the apical side to the basolateral side was determined. […]
The transport rate of the compound from the basolateral side to the apical side was determined.

Structures are written as SMILES. Some results are limits rather than exact numbers.
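For GI50 in this document: MDA-MB-436 proliferation over 7 days with compound, viability read as ATP luminescence (CellTiter-Glo), inhibition relative to DMSO-only wells, day 0 signal as background, GI50 from four-parameter fit.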

USP1 (Recombinant Human His6-USP1/His6-UAF1 Complex Protein), sequence (O94782 whole entry): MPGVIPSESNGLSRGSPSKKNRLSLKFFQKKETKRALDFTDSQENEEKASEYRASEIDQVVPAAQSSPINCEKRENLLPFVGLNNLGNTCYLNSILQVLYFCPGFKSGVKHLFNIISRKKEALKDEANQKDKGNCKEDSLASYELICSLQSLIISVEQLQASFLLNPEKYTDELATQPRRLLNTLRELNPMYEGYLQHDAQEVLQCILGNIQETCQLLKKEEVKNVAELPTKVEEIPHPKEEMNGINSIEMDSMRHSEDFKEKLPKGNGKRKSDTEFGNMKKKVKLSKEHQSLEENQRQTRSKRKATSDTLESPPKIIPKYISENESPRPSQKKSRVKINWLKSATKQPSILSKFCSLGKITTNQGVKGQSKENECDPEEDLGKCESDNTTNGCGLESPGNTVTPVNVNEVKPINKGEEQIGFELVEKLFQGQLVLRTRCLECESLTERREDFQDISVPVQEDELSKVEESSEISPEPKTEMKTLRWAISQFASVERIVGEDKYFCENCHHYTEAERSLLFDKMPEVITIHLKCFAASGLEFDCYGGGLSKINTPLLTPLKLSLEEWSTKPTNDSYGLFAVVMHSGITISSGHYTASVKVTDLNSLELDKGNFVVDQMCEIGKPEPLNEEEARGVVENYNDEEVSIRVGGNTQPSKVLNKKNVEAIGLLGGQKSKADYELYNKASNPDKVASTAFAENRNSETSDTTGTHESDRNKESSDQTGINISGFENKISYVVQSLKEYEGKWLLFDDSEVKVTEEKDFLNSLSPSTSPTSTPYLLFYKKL
USP1 (Recombinant Human His6-USP1/His6-UAF1 Complex Protein), sequence (Q8TAF3 whole entry partner): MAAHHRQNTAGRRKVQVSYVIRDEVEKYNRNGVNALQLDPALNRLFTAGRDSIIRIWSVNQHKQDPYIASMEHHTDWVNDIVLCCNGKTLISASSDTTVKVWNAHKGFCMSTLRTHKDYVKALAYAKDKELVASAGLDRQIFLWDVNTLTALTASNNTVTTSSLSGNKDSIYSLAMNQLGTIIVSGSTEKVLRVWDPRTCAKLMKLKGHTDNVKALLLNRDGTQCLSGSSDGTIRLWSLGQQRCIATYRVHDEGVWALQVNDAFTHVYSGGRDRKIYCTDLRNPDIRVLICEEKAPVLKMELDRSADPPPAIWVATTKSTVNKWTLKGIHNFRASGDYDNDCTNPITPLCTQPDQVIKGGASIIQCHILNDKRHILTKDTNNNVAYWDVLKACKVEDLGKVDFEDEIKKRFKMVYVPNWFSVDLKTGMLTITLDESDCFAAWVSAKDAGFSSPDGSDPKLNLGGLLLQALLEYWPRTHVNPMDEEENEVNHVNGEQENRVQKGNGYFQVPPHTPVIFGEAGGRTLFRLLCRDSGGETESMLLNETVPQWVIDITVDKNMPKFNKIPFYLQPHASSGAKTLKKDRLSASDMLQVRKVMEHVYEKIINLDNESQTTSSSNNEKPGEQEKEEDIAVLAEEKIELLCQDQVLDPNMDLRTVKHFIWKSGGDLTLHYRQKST
CYP2C9, sequence (P11712 whole entry): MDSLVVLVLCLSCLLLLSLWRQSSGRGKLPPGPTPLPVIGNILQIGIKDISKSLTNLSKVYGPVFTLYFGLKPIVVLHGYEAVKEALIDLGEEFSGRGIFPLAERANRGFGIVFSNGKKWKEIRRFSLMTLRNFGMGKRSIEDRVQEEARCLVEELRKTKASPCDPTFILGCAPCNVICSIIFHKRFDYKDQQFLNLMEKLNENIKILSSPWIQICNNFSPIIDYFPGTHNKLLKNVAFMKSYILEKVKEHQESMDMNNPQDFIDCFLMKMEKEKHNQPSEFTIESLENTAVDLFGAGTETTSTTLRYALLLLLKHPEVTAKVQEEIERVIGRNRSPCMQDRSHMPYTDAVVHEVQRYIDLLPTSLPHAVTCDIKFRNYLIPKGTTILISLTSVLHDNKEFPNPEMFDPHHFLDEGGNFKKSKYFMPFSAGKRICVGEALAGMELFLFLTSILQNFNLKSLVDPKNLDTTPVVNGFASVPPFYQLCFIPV
Method for MDA-MB-436 cells: Assay based on CellTiter-Glo luminescent cell viability assay system.
The assay kit (CellTiter-Glo® Luminescent Cell Viability Assay) was purchased from Promega, with Cat. No. of G7573, and was stored at −30° C. after subpackage. The kit is a homogeneous assay method for assaying the number of viable cells in a culture based on quantitative determination of ATP. The kit produces a luminescence signal proportional to the amount of ATP present, and the amount of ATP is directly proportional to the number of cells in the culture.
The cultured cells were trypsinized, collected and centrifuged, then resuspended at an adjusted concentration in a culture solution (DMEM+10% FBS), and cultured overnight on a 384-well plate (400 cells/20 μl/well) in a cell incubator with 5% CO2 at 37° C. An ECHO instrument was used to added the compound and pure DMSO onto each well of the 384-well plate. The total volume of the compound and DMSO is 100 nL, and the instrument obtains gradient diluted sample concentrations through different ratios. To each well, 30 μL of culture solution was added, and after mixing by centrifugal oscillation and re-centrifugation, the cells were cultured in a cell incubator for 7 days (one column of cells was subjected to CTG assay on the day of dosing). After day 7, 25 μL of CTG assay solution was added to each well, and after mixing by centrifugal oscillation and re-centrifugation, the cells were placed at room temperature away from light for 10 min. In terms of chemiluminescence signals, an Envision plate reader (PerkinElmer, emission wavelength: 400-700 nm) was used to measure a signal in each well. The chemiluminescence value [RLU]cpd on day 7 was obtained for the treatment group, the chemiluminescence value [RLU]cell on day 7 was obtained for the non-treatment group (given DMSO only), and the chemiluminescence value [RLU]background on day 0 was obtained for the parallel non-treatment group (given DMSO only) by CTG assay on day 0. […] In the following equation, x represents the concentration of the compound in a logarithmic form; and F(x) represents an effect value (inhibition rate of proliferation at the concentration): F(x)=(A+((B−A)/(1+((C/x)^D)))). A, B, C, and D are four parameters.

Take `COc1ncnc(C2CC2)c1-c1ncc2c(n1)N(Cc1ccc(-c3nc(C(F)(F)F)cn3C)cc1)CC(=O)N2C` [Compound 11, 2-(4-cyclopropyl-6-methoxypyrimidin-5-yl)-5-methyl-8-(4-(1-methyl-4-(trifluoromethyl)-1H-imidazol-2-yl)benzyl)-7,8-dihydropteridin-6(5H)-one]: the Vd in series [1] (IV 1 mg/kg, read-out: Apparent volume of distribution Vss_obs) was found to be 3.2 L/kg. Moreover, the clearance in series [1] (IV 1 mg/kg, read-out: Clearance CL_obs) was found to be 16.5 mL/min/kg. Besides, the half-life in series [1] (IV 1 mg/kg, read-out: Half-life period T1/2 (converted)) is 3.2 h. The bioavailability in series [1] (PO 5 mg/kg versus IV, read-out: Bioavailability F) stood at 96.3%. Also, in series [1] (PO 5 mg/kg, read-out: Maximum plasma concentration Cmax), the Cmax was determined as 1010 ng/mL. Moreover, the IC50 in series [2] came to 45.4 nM; at CYP2C9, 28900 nM. In the series on MDA-MB-436 cells, this compound came in with a GI50 of 32.8 nM. In addition, the hepatocyte CLint at 1 μM in series [3] is less than 1 µL/min/1e6 cells. In series [4] (Caco-2, 5 μM, 2 h, apical to basolateral), this compound yielded a Papp A→B at 2 h, 5 μM of 4.9 ×10⁻⁶ cm/s. This compound yielded a Papp B→A at 2 h, 5 μM in series [4] (Caco-2, 5 μM, 2 h, basolateral to apical) of 17.6 ×10⁻⁶ cm/s. Also, the efflux ratio at 2 h, 5 μM in series [4] (Caco-2, Papp (B−A)/Papp (A−B)) was determined as 3.6.

The clearance is a measure of how efficiently the substance is removed, as volume per time. As usually defined, the bioavailability is the share of a dose that reaches the circulation, judged against a reference dose that is usually intravenous. As usually defined, the IC50 is the concentration at which inhibition is half-maximal. What is called GI50 is the concentration at which growth is held to half of that of the control. The low end stands for more potent growth inhibition, the high end for less potent growth inhibition. By Papp A→B is commonly meant how fast a substance crosses the layer from the apical side. A high value points to fast passage. Usually Papp B→A stands for how fast a substance crosses the layer from the basolateral side. The efflux ratio is a quotient of directional permeabilities that is used to spot active efflux.

The values above are taken from patent US20240226107A1, “UBIQUITIN-SPECIFIC PROTEASE 1 (USP1) INHIBITOR” (SIMCERE ZAIMING PHARMACEUTICAL CO., LTD., priority 2021, published 2024).
